Source: US20240092758A1, “IMIDAZOLO INDAZOLE COMPOUNDS AS JAK INHIBITORS” (Theravance Biopharma R&D IP, LLC, priority 2021, published 2024)

Assays:
JAK1 = JAK1 (Homo sapiens (Human), UniProt P23458); experiment: Biochemical JAK kinase assay (LanthaScreen), JAK1; conditions: for Ki: read-out: JAK1 pKi (converted)
Summary of the method: (§1)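 LanthaScreen format: phospho-STAT1 (pTyr701) detected with 2 nM Tb antibody after 10 mM EDTA quench. Kinase step used Km-level ATP and 200 nM STAT1 peptide, 1 h at ambient after 1 h pre-incubation. Inhibition fitted to IC50, reported as pKi.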

JAK2 = JAK2 (Homo sapiens (Human), UniProt O60674); experiment: Biochemical JAK kinase assay (LanthaScreen), JAK2; conditions: for Ki: read-out: JAK2 pKi (converted)
Chain of JAK2 (O60674 whole entry): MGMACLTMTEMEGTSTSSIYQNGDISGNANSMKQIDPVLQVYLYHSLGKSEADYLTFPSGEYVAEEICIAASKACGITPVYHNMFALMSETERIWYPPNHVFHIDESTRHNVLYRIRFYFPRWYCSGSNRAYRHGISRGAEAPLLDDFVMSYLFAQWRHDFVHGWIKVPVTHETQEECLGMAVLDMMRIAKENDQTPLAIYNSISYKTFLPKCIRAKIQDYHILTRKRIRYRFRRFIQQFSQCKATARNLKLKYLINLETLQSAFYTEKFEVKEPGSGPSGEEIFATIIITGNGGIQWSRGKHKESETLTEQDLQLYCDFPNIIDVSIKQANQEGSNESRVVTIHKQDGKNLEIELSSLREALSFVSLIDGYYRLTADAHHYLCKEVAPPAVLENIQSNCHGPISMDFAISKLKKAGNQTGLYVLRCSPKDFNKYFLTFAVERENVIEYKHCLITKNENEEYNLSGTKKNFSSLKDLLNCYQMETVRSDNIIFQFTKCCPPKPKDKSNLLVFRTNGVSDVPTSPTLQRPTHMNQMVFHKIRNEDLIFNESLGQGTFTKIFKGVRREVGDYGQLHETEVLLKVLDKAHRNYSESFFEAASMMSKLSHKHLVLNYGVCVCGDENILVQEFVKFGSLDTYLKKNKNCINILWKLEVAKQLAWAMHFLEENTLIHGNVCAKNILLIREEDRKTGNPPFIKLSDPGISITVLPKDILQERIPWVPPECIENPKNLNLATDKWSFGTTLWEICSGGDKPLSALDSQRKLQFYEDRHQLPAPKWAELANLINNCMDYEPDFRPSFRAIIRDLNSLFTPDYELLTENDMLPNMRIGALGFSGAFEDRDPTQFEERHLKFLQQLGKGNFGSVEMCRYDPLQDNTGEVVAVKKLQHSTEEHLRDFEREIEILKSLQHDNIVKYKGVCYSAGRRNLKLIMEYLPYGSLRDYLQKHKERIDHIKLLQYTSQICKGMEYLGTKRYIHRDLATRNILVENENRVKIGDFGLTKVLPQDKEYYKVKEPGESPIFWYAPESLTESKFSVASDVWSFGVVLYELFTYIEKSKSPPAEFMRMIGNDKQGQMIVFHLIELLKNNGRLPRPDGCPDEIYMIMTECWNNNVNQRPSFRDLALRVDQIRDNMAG
Summary of the method: as §1

JAK3 = JAK3 (Homo sapiens (Human), UniProt P52333); experiment: Biochemical JAK kinase assay (LanthaScreen), JAK3; conditions: read-out: JAK3 pKi (converted)
Chain of JAK3 (P52333 whole entry): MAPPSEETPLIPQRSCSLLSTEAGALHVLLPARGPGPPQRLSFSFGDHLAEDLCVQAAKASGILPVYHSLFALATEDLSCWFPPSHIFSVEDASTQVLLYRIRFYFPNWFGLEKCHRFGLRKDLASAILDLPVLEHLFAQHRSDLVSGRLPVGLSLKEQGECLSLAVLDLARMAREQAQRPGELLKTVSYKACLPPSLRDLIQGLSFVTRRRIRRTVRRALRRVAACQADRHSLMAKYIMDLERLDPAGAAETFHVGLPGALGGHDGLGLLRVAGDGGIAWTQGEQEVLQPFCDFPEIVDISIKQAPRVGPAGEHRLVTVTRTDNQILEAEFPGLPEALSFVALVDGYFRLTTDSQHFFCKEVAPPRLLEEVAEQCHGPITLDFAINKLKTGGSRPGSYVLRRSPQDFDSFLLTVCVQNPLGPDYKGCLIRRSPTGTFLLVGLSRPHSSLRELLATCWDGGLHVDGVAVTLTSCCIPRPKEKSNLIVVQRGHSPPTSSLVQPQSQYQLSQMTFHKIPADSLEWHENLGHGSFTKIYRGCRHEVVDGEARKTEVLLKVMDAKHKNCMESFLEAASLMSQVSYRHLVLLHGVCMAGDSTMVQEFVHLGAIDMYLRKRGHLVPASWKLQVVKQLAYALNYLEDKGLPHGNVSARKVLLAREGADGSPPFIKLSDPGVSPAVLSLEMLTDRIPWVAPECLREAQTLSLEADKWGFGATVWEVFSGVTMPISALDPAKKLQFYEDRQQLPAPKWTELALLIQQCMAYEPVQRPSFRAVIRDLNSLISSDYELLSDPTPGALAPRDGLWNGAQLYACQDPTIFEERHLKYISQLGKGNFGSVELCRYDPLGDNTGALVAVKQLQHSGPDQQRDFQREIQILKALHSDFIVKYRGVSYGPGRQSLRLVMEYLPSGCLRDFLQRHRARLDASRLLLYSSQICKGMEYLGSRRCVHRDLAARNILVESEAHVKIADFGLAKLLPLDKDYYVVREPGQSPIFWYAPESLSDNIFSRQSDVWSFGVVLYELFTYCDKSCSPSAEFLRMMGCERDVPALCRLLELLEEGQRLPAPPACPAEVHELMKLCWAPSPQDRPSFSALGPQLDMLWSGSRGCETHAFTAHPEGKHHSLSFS
Summary of the method: as §1

TYK2 = TYK2 (Homo sapiens (Human), UniProt P29597); experiment: Biochemical JAK kinase assay (LanthaScreen), Tyk2; conditions: read-out: Tyk2 pKi (converted)
Chain of TYK2 (P29597 whole entry): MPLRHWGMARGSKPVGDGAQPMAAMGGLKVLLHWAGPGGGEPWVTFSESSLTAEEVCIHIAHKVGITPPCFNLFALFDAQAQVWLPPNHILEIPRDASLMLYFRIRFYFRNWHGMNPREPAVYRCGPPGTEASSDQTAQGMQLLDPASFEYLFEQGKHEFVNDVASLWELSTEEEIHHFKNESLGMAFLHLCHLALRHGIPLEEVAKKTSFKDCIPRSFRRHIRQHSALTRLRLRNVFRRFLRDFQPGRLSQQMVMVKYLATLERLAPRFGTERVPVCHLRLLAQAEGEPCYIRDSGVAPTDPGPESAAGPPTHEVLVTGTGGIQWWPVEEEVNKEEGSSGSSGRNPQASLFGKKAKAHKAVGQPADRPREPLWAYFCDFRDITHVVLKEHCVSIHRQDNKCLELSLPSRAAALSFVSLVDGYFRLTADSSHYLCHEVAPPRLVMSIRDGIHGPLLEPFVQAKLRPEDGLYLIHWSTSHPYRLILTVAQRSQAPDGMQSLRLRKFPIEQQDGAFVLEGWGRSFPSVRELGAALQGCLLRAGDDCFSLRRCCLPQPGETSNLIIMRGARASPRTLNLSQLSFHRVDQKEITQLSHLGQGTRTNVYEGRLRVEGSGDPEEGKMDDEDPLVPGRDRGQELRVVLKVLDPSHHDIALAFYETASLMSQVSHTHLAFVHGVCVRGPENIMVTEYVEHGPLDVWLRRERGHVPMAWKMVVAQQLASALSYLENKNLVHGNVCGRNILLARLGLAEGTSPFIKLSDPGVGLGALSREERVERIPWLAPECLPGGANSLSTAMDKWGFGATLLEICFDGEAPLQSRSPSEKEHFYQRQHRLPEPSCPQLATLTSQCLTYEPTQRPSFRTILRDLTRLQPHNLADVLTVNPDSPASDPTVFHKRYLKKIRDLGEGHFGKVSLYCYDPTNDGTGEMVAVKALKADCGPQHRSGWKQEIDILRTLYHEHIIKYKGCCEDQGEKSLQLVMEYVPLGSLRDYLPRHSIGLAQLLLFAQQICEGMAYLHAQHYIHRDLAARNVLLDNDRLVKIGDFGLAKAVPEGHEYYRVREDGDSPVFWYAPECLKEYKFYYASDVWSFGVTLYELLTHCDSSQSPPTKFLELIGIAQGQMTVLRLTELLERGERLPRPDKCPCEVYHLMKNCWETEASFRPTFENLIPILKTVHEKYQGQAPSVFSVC
Summary of the method: as §1

[1] = system: IL-13 induced STAT6 phosphorylation in BEAS-2B human lung epithelial cells; experiment: Cellular JAKI potency assay (BEAS-2B); type: cell-based; conditions: Homo sapiens, BEAS-2B, BEAS-2B cells, read-out: BEAS2B pIC50 (converted)
Summary of the method: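 AlphaLISA SureFire detection of Tyr641 pSTAT6 in lysates gave IC50s (4-parameter fit, expressed as pIC50). Cells: human BEAS-2B, exposed 1 h at 37 °C to compound dose series at 0.1% DMSO, then 30 min to IL-13 added at 80 ng/mL in HEPES-buffered HBSS with BSA.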

[2] = Pharmacokinetics in plasma and lung in mouse after oral aspiration administration; type: in vivo; conditions: male CD1 mice; for Lung Tissue AUC(0-24) / AUC(0-t): 0.2 mg/mL, two 25 μL increments; for Lung Tissue:Plasma AUC ratio: lung AUC to plasma AUC; for AUC(0-t): mouse, inhaled or intranasal, 0.01 mg/mouse, plasma, read-out: Plasma AUC(0-24)
Summary of the method: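 Male CD1 mice given 0.2 mg/mL compound in 20% propylene glycol/pH 4 citrate buffer, two 25 μL increments by oral aspiration into the trachea under isoflurane. Plasma and lung homogenate sampled 0.167–24 hr and measured by LC-MS/MS. Non-compartmental analysis gave AUC(0-inf); lung-to-plasma ratio from lung (μg*hr/g) over plasma (μg*hr/mL) AUC.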

Chain of JAK1 (P23458 whole entry): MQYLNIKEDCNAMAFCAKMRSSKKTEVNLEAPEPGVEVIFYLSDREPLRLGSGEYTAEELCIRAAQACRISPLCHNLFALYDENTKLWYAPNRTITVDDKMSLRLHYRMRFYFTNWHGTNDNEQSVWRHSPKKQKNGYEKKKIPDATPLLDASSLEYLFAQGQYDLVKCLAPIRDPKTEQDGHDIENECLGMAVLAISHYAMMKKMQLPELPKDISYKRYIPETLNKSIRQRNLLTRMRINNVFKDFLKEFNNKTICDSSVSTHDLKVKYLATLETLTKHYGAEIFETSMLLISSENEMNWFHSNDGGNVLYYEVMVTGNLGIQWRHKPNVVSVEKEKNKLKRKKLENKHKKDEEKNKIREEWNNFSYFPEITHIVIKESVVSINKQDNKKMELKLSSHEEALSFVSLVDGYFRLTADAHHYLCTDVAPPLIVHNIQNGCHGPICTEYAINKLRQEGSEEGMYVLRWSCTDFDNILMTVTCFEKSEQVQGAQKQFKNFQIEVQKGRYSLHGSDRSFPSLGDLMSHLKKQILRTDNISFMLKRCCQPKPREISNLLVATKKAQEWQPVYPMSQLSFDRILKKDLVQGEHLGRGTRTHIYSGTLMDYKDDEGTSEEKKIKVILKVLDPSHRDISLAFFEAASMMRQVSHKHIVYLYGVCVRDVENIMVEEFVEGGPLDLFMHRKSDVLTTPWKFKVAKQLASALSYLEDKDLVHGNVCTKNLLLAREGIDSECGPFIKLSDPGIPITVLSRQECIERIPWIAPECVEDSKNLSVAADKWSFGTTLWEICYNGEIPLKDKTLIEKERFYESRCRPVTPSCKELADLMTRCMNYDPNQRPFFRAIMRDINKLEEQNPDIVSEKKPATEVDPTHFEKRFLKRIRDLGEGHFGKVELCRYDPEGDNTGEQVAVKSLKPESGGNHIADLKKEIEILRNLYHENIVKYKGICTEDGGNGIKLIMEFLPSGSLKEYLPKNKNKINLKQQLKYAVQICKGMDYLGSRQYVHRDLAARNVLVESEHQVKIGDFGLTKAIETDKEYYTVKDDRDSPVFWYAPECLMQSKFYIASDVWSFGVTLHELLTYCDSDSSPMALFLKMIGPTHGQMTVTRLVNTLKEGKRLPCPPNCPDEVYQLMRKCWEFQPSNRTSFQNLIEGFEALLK

Compound	Ki (JAK1) [nM]	Ki (JAK2) [nM]	Ki (JAK3) [nM]	Ki (TYK2) [nM]	IC50 [1] [nM]	Lung Tissue AUC(0-24) [2]	Lung Tissue:Plasma AUC ratio [2]	AUC(0-t) [2] [ng·h/mL]	JAK1 pKi (JAK1)	JAK2 pKi (JAK2)
CCc1cc(O)ccc1-c1ccc2c(-c3nc(C4=CCCNC4)c[nH]3)n[nH]c2c1 [Compound 4, 3-ethyl-4-(3-(4-(1,2,5,6-tetrahydropyridin-3-yl)-1H-imidazol-2-yl)-1H-indazol-6-yl)phenol]	0.1 to 1	0.1 to 1	0.1 to 1	1 to 10	3.16 to 10	B (B denotes a value between 50 and 100)	C (C denotes a ratio between 100 and 200)	500 to 1000	–	–
CCc1cc(O)ccc1-c1ccc2c(-c3nc(C4=CCNC4)c[nH]3)n[nH]c2c1 [Compound 5, 4-(3-(4-(2,5-dihydro-1H-pyrrol-3-yl)-1H-imidazol-2-yl)-1H-indazol-6-yl)-3-ethylphenol]	–	0.1 to 1	0.1 to 1	0.1 to 1	3.16 to 10	C (C denotes a value between 9 and 50)	D (D denotes a ratio between 50 and 100)	< 500	A (A represents a pKi value ≥10 (Ki≤0.1 nM))	–
CCc1cc(O)ccc1-c1ccc2c(-c3nc(C4=CCCNC4)c[nH]3)n[nH]c2c1F [Compound 6, 3-ethyl-4-(7-fluoro-3-(4-(1,2,5,6-tetrahydropyridin-3-yl)-1H-imidazol-2-yl)-1H-indazol-6-yl)phenol]	0.1 to 1	0.1 to 1	1 to 10	1 to 10	3.16 to 10	B (B denotes a value between 50 and 100)	D (D denotes a ratio between 50 and 100)	500 to 1000	–	–
CCc1cc(O)ccc1-c1ccc2c(-c3nc(C4=CC5COCC(C4)N5)c[nH]3)n[nH]c2c1 (stereo not shown) [Compound 7, 4-(3-(4-(3-oxa-9-azabicyclo[3.3.1]non-6-en-7-yl)-1H-imidazol-2-yl)-1H-indazol-6-yl)-3-ethylphenol]	0.1 to 1	–	0.1 to 1	1 to 10	10 to 31.6	B (B denotes a value between 50 and 100)	C (C denotes a ratio between 100 and 200)	< 500	–	A (A represents a pKi value ≥10 (Ki≤0.1 nM))
CCc1cc(O)ccc1-c1ccc2c(-c3nc(C4=C[C@H](CO)NC4)c[nH]3)n[nH]c2c1F [Compound 8, (R)-3-ethyl-4-(7-fluoro-3-(4-(5-(hydroxymethyl)-2,5-dihydro-1H-pyrrol-3-yl)-1H-imidazol-2-yl)-1H-indazol-6-yl)phenol]	0.1 to 1	–	0.1 to 1	1 to 10	10 to 31.6	B (B denotes a value between 50 and 100)	C (C denotes a ratio between 100 and 200)	500 to 1000	–	A (A represents a pKi value ≥10 (Ki≤0.1 nM))
CCc1cc(O)ccc1-c1ccc2c(-c3nc(C4=C[C@H](COC)NC4)c[nH]3)n[nH]c2c1F [Compound 9, (R)-3-ethyl-4-(7-fluoro-3-(4-(5-(methoxymethyl)-2,5-dihydro-1H-pyrrol-3-yl)-1H-imidazol-2-yl)-1H-indazol-6-yl)phenol]	–	0.1 to 1	0.1 to 1	10 to 100	3.16 to 10	C (C denotes a value between 9 and 50)	C (C denotes a ratio between 100 and 200)	< 500	A (A represents a pKi value ≥10 (Ki≤0.1 nM))	–
CCc1cc(O)ccc1-c1ccc2c(-c3nc(C4=CCN(C5CN(C)C5)CC4)c[nH]3)n[nH]c2c1 [Compound 15, 3-ethyl-4-(3-(4-(1-(1-methylazetidin-3-yl)-1,2,3,6-tetrahydropyridin-4-yl)-1H-imidazol-2-yl)-1H-indazol-6-yl)phenol]	0.1 to 1	–	0.1 to 1	1 to 10	10 to 31.6	B (B denotes a value between 50 and 100)	C (C denotes a ratio between 100 and 200)	< 500	–	A (A represents a pKi value ≥10 (Ki≤0.1 nM))
CCc1cc(O)ccc1-c1ccc2c(-c3nc(C4=CCN(C[C@@H]5COCCN5)CC4)c[nH]3)n[nH]c2c1 [Compound 17, (R)-3-ethyl-4-(3-(4-(1-(morpholin-3-ylmethyl)-1,2,3,6-tetrahydropyridin-4-yl)-1H-imidazol-2-yl)-1H-indazol-6-yl)phenol]	0.1 to 1	0.1 to 1	0.1 to 1	1 to 10	3.16 to 10	B (B denotes a value between 50 and 100)	C (C denotes a ratio between 100 and 200)	500 to 1000	–	–
CCc1cc(O)ccc1-c1ccc2c(-c3nc(C4=CCN(C)CC4)c[nH]3)n[nH]c2c1F [Example 21]	–	–	0.1 to 1	0.1 to 1	3.16 to 10	C (C denotes a value between 9 and 50)	D (D denotes a ratio between 50 and 100)	< 500	A (A represents a pKi value ≥10 (Ki≤0.1 nM))	A (A represents a pKi value ≥10 (Ki≤0.1 nM))
CCc1cc(O)ccc1-c1ccc2c(-c3nc(C4=CCN(C(C)C)CC4)c[nH]3)n[nH]c2c1F [Example 22]	0.1 to 1	–	0.1 to 1	1 to 10	3.16 to 10	C (C denotes a value between 9 and 50)	D (D denotes a ratio between 50 and 100)	< 500	–	A (A represents a pKi value ≥10 (Ki≤0.1 nM))
CCc1cc(O)ccc1-c1ccc2c(-c3nc(C4=CCN(C5CCC5)CC4)c[nH]3)n[nH]c2c1F [Example 26]	0.1 to 1	0.1 to 1	0.1 to 1	1 to 10	10 to 31.6	C (C denotes a value between 9 and 50)	E (E denotes a ratio between 30 and 50)	< 500	–	–
CCc1cc(O)ccc1-c1ccc2c(-c3nc(C4=CCN(C(C)C)C4)c[nH]3)n[nH]c2c1F [Example 32]	0.1 to 1	0.1 to 1	0.1 to 1	1 to 10	3.16 to 10	C (C denotes a value between 9 and 50)	D (D denotes a ratio between 50 and 100)	< 500	–	–
CCc1cc(O)ccc1-c1ccc2c(-c3nc(C4=CCCN(CCO)C4)c[nH]3)n[nH]c2c1F [Example 44]	0.1 to 1	0.1 to 1	0.1 to 1	1 to 10	3.16 to 10	B (B denotes a value between 50 and 100)	D (D denotes a ratio between 50 and 100)	500 to 1000	–	–
CCc1cc(O)ccc1-c1ccc2c(-c3nc(C4=CCCN(CCCO)C4)c[nH]3)n[nH]c2c1F [Example 45]	0.1 to 1	–	0.1 to 1	1 to 10	3.16 to 10	C (C denotes a value between 9 and 50)	C (C denotes a ratio between 100 and 200)	< 500	–	A (A represents a pKi value ≥10 (Ki≤0.1 nM))
CCc1cc(O)ccc1-c1ccc2c(-c3nc(C4=CCN(C(=O)[C@@H](N)C(C)(C)O)C4)c[nH]3)n[nH]c2c1 [Example 170]	0.1 to 1	–	0.1 to 1	0.1 to 1	10 to 31.6	B (B denotes a value between 50 and 100)	C (C denotes a ratio between 100 and 200)	< 500	–	A (A represents a pKi value ≥10 (Ki≤0.1 nM))
CCc1cc(O)ccc1-c1ccc2c(-c3nc(C4=CCN(C5CCN(C)CC5)CC4)c[nH]3)n[nH]c2c1F [Example 185]	0.1 to 1	0.1 to 1	0.1 to 1	1 to 10	10 to 31.6	A (For the Lung Tissue AUC(0-24), A denotes a value between 100 and 200)	B (B denotes a ratio between 200 and 300)	500 to 1000	–	–
CCc1cc(O)ccc1-c1ccc2c(-c3nc(C4=CCCN(C5CCN(C)CC5)C4)c[nH]3)n[nH]c2c1 [Example 192]	0.1 to 1	–	0.1 to 1	1 to 10	10 to 31.6	A (For the Lung Tissue AUC(0-24), A denotes a value between 100 and 200)	A (For the ratio of lung exposure to plasma exposure, A denotes a ratio 300-410)	< 500	–	A (A represents a pKi value ≥10 (Ki≤0.1 nM))
